Values quoted from earlier work in patent US20060210485A1, “Pharmaceutical formulations” (priority 2003, published 2006).
Where a name gives a salt, the structure may show the parent alone.

Details: solid tablets with a lactose excipient; adducts postulated via the Maillard reaction

chemical stability in presence of lactose: undergoes degradation
SMILES: CNCCC(Oc1ccc(C(F)(F)F)cc1)c1ccccc1 (stereo not shown) [fluoxetine hydrochloride]
